Assays:
mouse TAAR1 = target: T1, mouse TAAR1 (Mus musculus, UniProt Q923Y8); test: TAAR1 radioligand binding with [3H]-rac-2-(1,2,3,4-tetrahydro-1-naphthyl)-2-imidazoline, membranes of stably transfected HEK293 cells; conditions: first value of the cell, read-out: Ki (μM) mouse/rat: mouse
T1 construct: expressed in transfected cells; host or cells: HEK293 (ATCC # CRL-1573), stably transfected with pIRESneo2 expression plasmid
Method in brief: (§1)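 Competition binding: competitors spanning 10 pM–30 μM displace 60 nM [3H]-rac-2-(1,2,3,4-tetrahydro-1-naphthyl)-2-imidazoline from stably transfected HEK293 membranes (mouse or rat receptor), 30 min, 4 °C, pH 7.0 buffer with Mg2+/Ca2+. Bound label counted after GF/C filtration; 10 μM unlabelled ligand defines non-specific binding.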

rat TAAR1 = target: T2, rat TAAR1 (Rattus norvegicus, UniProt Q923Y9); test: as above; conditions: second value of the cell, read-out: Ki (μM) mouse/rat: rat
T2 construct: expressed in transfected cells; host or cells: HEK293 (ATCC # CRL-1573), stably transfected with pIRESneo2 expression plasmid
T2 sequence (Q923Y9 whole entry): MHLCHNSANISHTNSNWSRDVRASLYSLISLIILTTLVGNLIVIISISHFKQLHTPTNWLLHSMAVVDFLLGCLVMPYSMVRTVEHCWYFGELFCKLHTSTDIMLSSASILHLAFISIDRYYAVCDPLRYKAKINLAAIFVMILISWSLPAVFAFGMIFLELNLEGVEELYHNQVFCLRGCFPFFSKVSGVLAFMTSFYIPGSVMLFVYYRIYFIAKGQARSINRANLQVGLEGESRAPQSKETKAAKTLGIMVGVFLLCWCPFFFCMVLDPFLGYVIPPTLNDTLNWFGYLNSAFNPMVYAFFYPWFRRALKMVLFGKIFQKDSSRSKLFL
Method in brief: as §1

T1 sequence (Q923Y8 whole entry): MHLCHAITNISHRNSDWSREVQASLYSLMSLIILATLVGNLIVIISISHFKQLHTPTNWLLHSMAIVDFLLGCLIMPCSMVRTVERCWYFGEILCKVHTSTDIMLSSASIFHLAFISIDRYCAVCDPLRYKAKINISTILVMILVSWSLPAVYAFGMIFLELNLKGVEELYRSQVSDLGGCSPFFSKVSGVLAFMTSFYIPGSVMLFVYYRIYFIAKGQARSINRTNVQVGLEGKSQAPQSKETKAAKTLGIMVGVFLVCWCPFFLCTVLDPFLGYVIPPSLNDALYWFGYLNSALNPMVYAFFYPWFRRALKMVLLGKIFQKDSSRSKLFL

Row | Compound | Ki (mouse TAAR1) [µM] | Ki (rat TAAR1) [µM]
1 | N#Cc1ccc(C(=O)Nc2ccc(CC[C@H]3COC(N)=N3)cc2)cc1 [Example 59, N-{4-[2-((S)-2-Amino-4,5-dihydro-oxazol-4-yl)-ethyl]-phenyl}-4-cyano-benzamide] | 0.0022 | 0.0022
2 | NC1=N[C@@H](CCc2ccc(NC(=O)C3(C(F)(F)F)CC3)cc2)CO1 [Example 52, 1-Trifluoromethyl-cyclopropanecarboxylic acid {4-[2-((S)-2-amino-4,5-dihydro-oxazol-4-yl)-ethyl]-phenyl}-amide] | 0.0073 | 0.006
3 | NC1=N[C@@H](CCc2ccc(NC(=O)c3ccc(Cl)nn3)cc2)CO1 [Example 122, (S)-N-(4-(2-(2-Amino-4,5-dihydrooxazol-4-yl)ethyl)phenyl)-6-chloropyridazine-3-carboxamide] | 0.0043 | 0.0043
4 | NC1=N[C@@H](CCc2ccc(NC(=O)Cc3ccc(F)cc3)cc2)CO1 [Example 69, N-{4-[2-((S)-2-Amino-4,5-dihydro-oxazol-4-yl)-ethyl]-phenyl}-2-(4-fluoro-phenyl)-acetamide] | 0.003 | 0.0009
5 | COc1ccc(C(=O)Nc2ccc(CC[C@H]3COC(N)=N3)cc2)cn1 [Example 97, N-{4-[2-((S)-2-Amino-4,5-dihydro-oxazol-4-yl)-ethyl]-phenyl}-6-methoxy-nicotinamide] | 0.0018 | 0.0015
6 | NC1=N[C@@H](CCc2ccc(NC(=O)c3ccc(Cl)cc3F)cc2)CO1 [Example 136, (S)-N-(4-(2-(2-Amino-4,5-dihydrooxazol-4-yl)ethyl)phenyl)-4-chloro-2-fluorobenzamide] | 0.0003 | 0.0006
7 | NC1=N[C@@H](CCc2ccc(NC(=O)c3cncc(Cl)c3)cc2)CO1 [Example 124, (S)-N-(4-(2-(2-Amino-4,5-dihydrooxazol-4-yl)ethyl)phenyl)-5-chloronicotinamide] | 0.004 | 0.0061
8 | NC1=N[C@@H](CCc2ccc(NC(=O)c3cc(Cl)ccn3)cc2)CO1 [Example 90, 4-Chloro-pyridine-2-carboxylic acid {4-[2-((S)-2-amino-4,5-dihydro-oxazol-4-yl)-ethyl]-phenyl}-amide] | 0.0007 | 0.0003
9 | NC1=N[C@@H](CCc2ccc(NC(=O)Nc3ccc(F)cc3)cc2)CO1 [Example 94, 1-{4-[2-((S)-2-Amino-4,5-dihydro-oxazol-4-yl)-ethyl]-phenyl}-3-(4-fluoro-phenyl)-urea] | 0.0003 | 0.0003
10 | NC1=N[C@@H](CCc2ccc(NC(=O)c3ccc(Br)cn3)cc2)CO1 [Example 92, 5-Bromo-pyridine-2-carboxylic acid {4-[2-((S)-2-amino-4,5-dihydro-oxazol-4-yl)-ethyl]-phenyl}-amide] | 0.0002 | 0.0004
11 | NC1=N[C@@H](CCc2ccc(NC(=O)C3CC3)cc2)CO1 [Example 46, Cyclopropanecarboxylic acid {4-[2-((S)-2-amino-4,5-dihydro-oxazol-4-yl)-ethyl]-phenyl}-amide] | 0.0042 | 0.0018
12 | NC1=N[C@@H](CCc2ccc(NC(=O)c3ncc(Cl)cn3)cc2)CO1 [Example 34, 5-Chloro-pyrimidine-2-carboxylic acid {4-[2-((S)-2-amino-4,5-dihydro-oxazol-4-yl)-ethyl]-phenyl}-amide] | 0.0067 | 0.0035
13 | NC1=N[C@@H](CCc2ccc(NC(=O)C3(c4ccc(Cl)cc4)CC3)cc2)CO1 [Example 53, 1-(4-Chloro-phenyl)-cyclopropanecarboxylic acid {4-[2-((S)-2-amino-4,5-dihydro-oxazol-4-yl)-ethyl]-phenyl}-amide] | 0.0009 | 0.0016
14 | CO[C@H](C(=O)Nc1ccc(CC[C@H]2COC(N)=N2)cc1)c1ccccc1 [Example 74, (S)-N-{4-[2-((S)-2-Amino-4,5-dihydro-oxazol-4-yl)-ethyl]-phenyl}-2-methoxy-2-phenyl-acetamide] | 0.009 | 0.0073
15 | NC1=N[C@@H](CCc2ccc(NC(=O)Nc3ccc(Cl)nc3)cc2)CO1 [Example 38, 1-{4-[2-((S)-2-Amino-4,5-dihydro-oxazol-4-yl)-ethyl]-phenyl}-3-(6-chloro-pyridin-3-yl)-urea] | 0.0017 | 0.0004
16 | CC(C(=O)Nc1ccc(CC[C@H]2COC(N)=N2)cc1)c1cccc(C(F)(F)F)c1 (stereo partly drawn) [Example 81, N-{4-[2-((S)-2-Amino-4,5-dihydro-oxazol-4-yl)-ethyl]-phenyl}-2-(3-trifluoromethyl-phenyl)-propionamide] | 0.001 | 0.0022
17 | NC1=N[C@@H](CCc2ccc(NC(=O)Nc3ccc(Cl)c(Cl)c3)cc2)CO1 [Example 14, 1-{4-[2-((S)-2-Amino-4,5-dihydro-oxazol-4-yl)-ethyl]-phenyl}-3-(3,4-dichloro-phenyl)-urea] | 0.0001 | 0.0001
18 | Cc1cnc(C(=O)Nc2ccc(CC[C@H]3COC(N)=N3)cc2)cn1 [Example 129, (S)-N-(4-(2-(2-Amino-4,5-dihydrooxazol-4-yl)ethyl)phenyl)-5-methylpyrazine-2-carboxamide] | 0.0039 | 0.0033
19 | NC1=N[C@@H](CCc2ccc(NC(=O)c3ccc(-n4cccn4)nc3)cc2)CO1 [Example 85, N-{4-[2-((S)-2-Amino-4,5-dihydro-oxazol-4-yl)-ethyl]-phenyl}-6-pyrazol-1-yl-nicotinamide] | 0.0012 | 0.0015

Next, values leading:

Row | Ki (mouse TAAR1) [µM] | Ki (rat TAAR1) [µM] | Compound
20 | 0.0019 | 0.0006 | Cc1cc(C)nc(C(=O)Nc2ccc(CC[C@H]3COC(N)=N3)cc2)c1 [Example 157, (S)-N-(4-(2-(2-Amino-4,5-dihydrooxazol-4-yl)ethyl)phenyl)-4,6-dimethylpicolinamide]
21 | 0.0015 | 0.0022 | CCc1ocnc1C(=O)Nc1ccc(CC[C@H]2COC(N)=N2)cc1 [Example 213, (S)-N-(4-(2-(2-Amino-4,5-dihydrooxazol-4-yl)ethyl)phenyl)-5-ethyloxazole-4-carboxamide]
22 | 0.0035 | 0.0016 | NC1=N[C@@H](CCc2ccc(NC(=O)c3ccnc(Cl)c3F)cc2)CO1 [Example 174, (S)-N-(4-(2-(2-Amino-4,5-dihydrooxazol-4-yl)ethyl)phenyl)-2-chloro-3-fluoroisonicotinamide]
23 | 0.0027 | 0.0061 | Cc1nc(C(=O)Nc2ccc(CC[C@H]3COC(N)=N3)cc2)c(C(F)(F)F)o1 [Example 216, (S)-N-(4-(2-(2-Amino-4,5-dihydrooxazol-4-yl)ethyl)phenyl)-2-methyl-5-(trifluoromethyl)oxazole-4-carboxamide]
24 | 0.0007 | 0.0011 | COc1cc(C(=O)Nc2ccc(CC[C@H]3COC(N)=N3)cc2)nc(C(C)C)n1 [Example 207, 2-Isopropyl-6-methoxy-pyrimidine-4-carboxylic acid {4-[2-((S)-2-amino-4,5-dihydro-oxazol-4-yl)-ethyl]-phenyl}-amide]
25 | 0.0009 | 0.001 | CCOc1ccc(C(=O)Nc2ccc(CC[C@H]3COC(N)=N3)cc2)nc1 [Example 153, (S)-N-(4-(2-(2-Amino-4,5-dihydrooxazol-4-yl)ethyl)phenyl)-5-ethoxypicolinamide]
26 | 0.0014 | 0.0009 | COc1ccc(C(=O)Nc2ccc(CC[C@H]3COC(N)=N3)cc2)nc1Cl [Example 168, (S)-N-(4-(2-(2-Amino-4,5-dihydrooxazol-4-yl)ethyl)phenyl)-6-chloro-5-methoxypicolinamide]
27 | 0.0006 | 0.0063 | Cc1cc(Cl)cc(C(=O)Nc2ccc(CC[C@H]3COC(N)=N3)cc2)n1 [Example 156, (S)-N-(4-(2-(2-Amino-4,5-dihydrooxazol-4-yl)ethyl)phenyl)-4-chloro-6-methylpicolinamide]
28 | 0.0036 | 0.0029 | CC(C)c1cc(C(=O)Nc2ccc(CC[C@H]3COC(N)=N3)cc2)ccn1 [Example 198, (S)-N-(4-(2-(2-Amino-4,5-dihydrooxazol-4-yl)ethyl)phenyl)-2-isopropylisonicotinamide]
29 | 0.003 | 0.0049 | CC(C)(C)c1cc(C(=O)Nc2ccc(CC[C@H]3COC(N)=N3)cc2)ccn1 [Example 197, (S)-N-(4-(2-(2-Amino-4,5-dihydrooxazol-4-yl)ethyl)phenyl)-2-tert-butylisonicotinamide]
30 | 0.0007 | 0.0005 | C[C@@H]1OC(N)=N[C@H]1CCc1ccc(NC(=O)c2ccc(Cl)cc2)cc1 [Example 205, N-(4-(2-((4S,5S)-2-Amino-5-methyl-4,5-dihydrooxazol-4-yl)ethyl)phenyl)-4-chlorobenzamide]
31 | 0.0084 | 0.0019 | Cc1cc(C(=O)Nc2ccc(CC[C@H]3COC(N)=N3)cc2)ccn1 [Example 172, (S)-N-(4-(2-(2-Amino-4,5-dihydrooxazol-4-yl)ethyl)phenyl)-2-methylisonicotinamide]
32 | 0.0004 | 0.0006 | Cc1cc(C(=O)Nc2ccc(CC[C@H]3COC(N)=N3)cc2)ncc1Cl [Example 155, (S)-N-(4-(2-(2-Amino-4,5-dihydrooxazol-4-yl)ethyl)phenyl)-5-chloro-4-methylpicolinamide]
33 | 0.0018 | 0.0027 | NC1=N[C@@H](CCc2ccc(NC(=O)c3cnc(N4CCC(F)(F)CC4)cn3)cc2)CO1 [Example 164]
34 | 0.0002 | 0.0002 | COc1cc(Cl)ccc1C(=O)Nc1ccc(CC[C@H]2COC(N)=N2)cc1 [Example 138, (S)-N-(4-(2-(2-Amino-4,5-dihydrooxazol-4-yl)ethyl)phenyl)-4-chloro-2-methoxybenzamide]
35 | 0.0042 | 0.0021 | Cc1ocnc1C(=O)Nc1ccc(CC[C@H]2COC(N)=N2)cc1 [Example 191, (S)-N-(4-(2-(2-Amino-4,5-dihydrooxazol-4-yl)ethyl)phenyl)-5-methyloxazole-4-carboxamide]
